Measurements: PubChem BioAssay AID816 (SRMLSC, 2007)
The source made the active and inactive calls. No rule for the calls is given here.

System: S. cerevisiae GAL1 promoter reporter activation counterscreen
Test: GAL1 promoter activators in yeast, artefact control for yeast lifespan extension project, S. cerevisiae (AID 816);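 also: yeast growth read after 24 h of incubation with compounds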

Structure (SMILES) | EC50
Oc1ccc2ccccc2c1C=Nc1ccccc1-c1nc2ccccc2[nH]1 | > 40 µM (inactive)
O=C1C(=C(O)c2ccccc2)C(=O)c2ccccc21 | > 40 µM (inactive)
O=c1c2[nH]c3ccccc3c2ncn1Cc1ccco1 | > 40 µM (inactive)
O=C(c1ccccc1)C(CN1CCCC1)c1ccccc1 (stereo not drawn) | > 40 µM (inactive)
CCOC(=O)c1c(C)oc2c1c(C(c1cccnc1)N1CCCCC1)c(O)c1ccccc12 (stereo not drawn) | > 40 µM (inactive)
COCCOC(=O)/C(=C/c1ccc(OC(=O)c2ccccc2)cc1)C(C)=O | > 40 µM (inactive)
CCN(CC)Cc1c(O)c(Cl)cc2c(C)c(C)c(=O)oc12 | > 40 µM (inactive)
c1cncc(-c2nn[nH]n2)c1 | > 40 µM (inactive)
COc1ccc2c(=O)c3c(=O)n(Cc4ccco4)c(-c4ccco4)nc3oc2c1 | > 40 µM (inactive)
CC(C)c1ccc(C2=C(O)c3ccccc3C(=O)C2=O)cc1 | > 40 µM (inactive)
Cc1nonc1NC(=O)CSc1nc(C2CCCCC2)nc2ccccc12 | > 40 µM (inactive)
COc1cccc(C2CC3C(=O)C=CC2N3Cc2ccccc2)c1 (stereo not drawn) | > 40 µM (inactive)
Cc1ccc(C(=O)NNC(=S)NC(=O)c2ccc(Cl)cc2)cc1 | > 40 µM (inactive)
CCc1cc2c(=O)c(Oc3ccccc3)c(C)oc2cc1O | > 40 µM (inactive)
COc1ccccc1C(=O)Oc1cc(N)n(S(=O)(=O)c2ccc(C)cc2)n1 | > 40 µM (inactive)
CN1OC(c2ccccc2)=C(CO)C1c1ccccc1 (stereo not drawn) | > 40 µM (inactive)
CC1CC(C)CN(S(=O)(=O)c2cccc(C(=O)N3C(=O)c4cccc(N)c4C3=O)c2)C1 (stereo not drawn) | > 40 µM (inactive)
Cc1cccc(NC(=O)c2c(O)c3cccc4c3n(c2=O)CCC4)n1 | > 40 µM (inactive)
Cc1nc2c(=O)n(C)c(=O)n(C)c2nc1Cl | > 40 µM (inactive)
O=C(NC(=S)NNS(=O)(=O)c1ccccc1)c1ccc([N+](=O)[O-])cc1 | > 40 µM (inactive)
O=S1(=O)C=C(Sc2nnc(-c3ccccc3)o2)c2ccccc21 | > 40 µM (inactive)
COc1ccc(OC)c(NC(=S)N2CCN(C/C=C/c3ccccc3)CC2)c1 | > 40 µM (inactive)
Cc1ccnc(N=Cc2c(O)ccc3oc4c(c23)CCCC4)c1 | > 40 µM (inactive)
COc1cccc(CSc2nc3ccccc3cc2C=O)c1 | > 40 µM (inactive)
CCCC(=Nc1ccccc1OC)C1=C(O)CC(c2ccccc2)CC1=O (stereo not drawn) | > 40 µM (inactive)

Structure (SMILES) | EC50
CC(C)c1noc2ncc(C(=O)c3cc(Cl)cc(Cl)c3O)cc12 | > 40 µM (inactive)
C=C(C)CN(CC)C(=O)COc1ccc(S(=O)(=O)Nc2ccc(OC)cc2)cc1 | > 40 µM (inactive)
COc1cc(Br)cc(-c2nc3c(c(=O)[nH]c(=O)n3Cc3ccccc3)n2C)c1O | > 40 µM (inactive)
O=C1C(C2=C(O)c3ccccc3C2=O)=Nc2ccccc21 | > 40 µM (inactive)
COc1ccccc1CNC(=O)C(CCSC)NS(=O)(=O)c1ccc2c(c1)oc(=O)n2C (stereo not drawn) | > 40 µM (inactive)
O=C(Nc1cccc(Cl)c1)c1ccc2c(=O)n3c(nc2c1)CCCCC3 | > 40 µM (inactive)
COc1ccc(CC(=O)Nc2ccc3c(c2)CCC3)cc1S(=O)(=O)N1CCOCC1 | > 40 µM (inactive)
O=C(Oc1cc(=O)n2ccccc2n1)c1ccccc1 | > 40 µM (inactive)
C/C(=N\NC(=O)c1ccccc1O)c1c(O)cc(C)oc1=O | > 40 µM (inactive)
O=C(NC(=S)NNC(=O)c1ccccc1O)c1ccco1 | > 40 µM (inactive)
CCn1c(/C=N/c2nc3ccccc3n2C)nc2ccccc21 | > 40 µM (inactive)
COc1c(Br)cc(Br)cc1/C=N/n1c(C)nnc1C | > 40 µM (inactive)
O=C(CSc1nc2ccccc2o1)c1cc2ccccc2oc1=O | > 40 µM (inactive)
CCCn1[nH]cc(SC)c(=O)c1=O | > 40 µM (inactive)
CCCCn1c(=O)c2c(O)cc(=O)oc2c2ccccc21 | > 40 µM (inactive)
CC(=O)c1c(C)[nH]c(C(=O)OC2CCCCC2=O)c1C (stereo not drawn) | > 40 µM (inactive)
O=S(=O)(Nc1nc2ccccc2nc1Cl)c1ccc2ccccc2c1 | > 40 µM (inactive)
CC(C)n1c(=O)c2c(O)cc(=O)oc2c2ccccc21 | > 40 µM (inactive)
CCc1oc2ccccc2c1C(=O)CCN1CCCCC1 | > 40 µM (inactive)
O=c1c(-c2ccc(Cl)cc2)[n+]([O-])c2ccccc2n1OCc1ccccn1 | > 40 µM (inactive)
COc1ccc(O)c(C(=O)c2cc(C#N)c(=O)n(CC3CCCO3)c2)c1 (stereo not drawn) | > 40 µM (inactive)
COc1ccc2c(=O)c3c(=O)n(Cc4ccco4)c(-c4ccc(C)cc4)nc3oc2c1 | > 40 µM (inactive)
COc1cc(/C=C/C(=O)c2c(O)cc(C)oc2=O)cc(OC)c1O | > 40 µM (inactive)
COCCCN(C(=S)Nc1cc(Cl)cc(Cl)c1)C(C)c1ccncc1 (stereo not drawn) | > 40 µM (inactive)
O=C(NC(=S)NNC(=O)c1ccc(Cl)cc1Cl)c1cccnc1 | > 40 µM (inactive)

Structure (SMILES) | EC50
O=CN(/C=C1\Sc2ccccc2C1=O)Cc1ccccc1 | > 40 µM (inactive)
CCC(=O)Nc1ccccc1Sc1ncnc2scc(-c3ccccc3)c12 | > 40 µM (inactive)
C=C(C(=O)c1ccccc1)C(CC(=O)c1ccccc1)c1ccccc1 (stereo not drawn) | > 40 µM (inactive)
O=C(CCC1CCCC1)c1c(O)c2ccccc2oc1=O | > 40 µM (inactive)
O=C1NCC2=C1C(c1ccc(Br)cc1)Nc1ccccc1N2 (stereo not drawn) | > 40 µM (inactive)
O=Cc1cccn1-c1sc2c(c1C(=O)O)CCCC2 | > 40 µM (inactive)
Cc1ccccc1NC(=O)c1ccccc1 | > 40 µM (inactive)
N#Cc1c(-c2ccccc2)c(-c2ccccc2)nn(CC(=O)NNC(=O)Nc2ccccc2)c1=O | > 40 µM (inactive)
Cc1nn(-c2c(Cl)cc(Cl)cc2Cl)c(=O)c2ccccc12 | > 40 µM (inactive)
O=c1c2c3c(sc2ncn1/N=C/c1ccc([N+](=O)[O-])o1)CCCC3 | > 40 µM (inactive)
O=S(=O)(CCSc1ccccn1)c1nc2ccccc2s1 | > 40 µM (inactive)
COCCCNc1c2c3c(cccc3[nH]c1=O)C(=O)c1ccccc1-2 | > 40 µM (inactive)
O=C(NCc1ccco1)c1cc(C(=O)C2CCCCC2)c[nH]1 | > 40 µM (inactive)
Cc1ccc(C(=O)/C=C\C(=O)c2ccc(C)cc2)cc1 | > 40 µM (inactive)
O=Cc1ccccc1OS(=O)(=O)c1ccccc1 | > 40 µM (inactive)
CC(c1ccco1)N(C(=O)c1ccccc1NS(=O)(=O)c1cc([N+](=O)[O-])ccc1Cl)c1ccccn1 (stereo not drawn) | > 40 µM (inactive)
CC(=C1C(=O)c2ccccc2C1=O)N1CCN(c2ccccn2)CC1 | > 40 µM (inactive)
Cc1ccc(/C=C/C(=O)C2C(=O)c3ccccc3C2=O)cc1 | > 40 µM (inactive)
CCCC[n+]1c(-c2ccc(Cl)cc2Cl)csc1Nc1ccccc1 | > 40 µM (inactive)
CCCNC(=O)CCC(NS(=O)(=O)c1ccc(C)cc1)C(=O)NCCC (stereo not drawn) | > 40 µM (inactive)
COc1ccc(C(=O)C(CN2CCOCC2)c2ccccc2)cc1 (stereo not drawn) | > 40 µM (inactive)
Cc1ccc(C(=O)C2C(=O)c3ccccc3C2=O)cc1 | > 40 µM (inactive)
CS(=O)(=O)Oc1ccc(Br)cc1/C=C1/N=C(c2ccco2)OC1=O | > 40 µM (inactive)
